Earlier results as cited in patent publication US20260325503A1, “LONG-ACTING FORMULATIONS” (JANSSEN PHARMACEUTICA NV, priority 2022, published 2026).

Columns and labels:
[1] = system: mycobacterial ATP synthase; settings: mycobacterial ATP synthase versus eukaryotic mitochondrial ATP synthase
[2] = system: Mycobacterium leprae
[3] = system: M. tuberculosis

COc1nc2ccc(Br)cc2cc1[C@@H](c1ccccc1)[C@@](O)(CCN(C)C)c1cccc2ccccc12 [bedaquiline]
selectivity index [1]: more than 20000 | minimal dose killing 99% of bacilli ([2]; M. lepra): < 5.0 mg/kg/wk | Bactericidal activity (in words) ([2]; mycobacterium leprae, mice): bactericidal | minimal dose killing 99% of bacilli [3]: 30 mg/kg/wk
